Measurements: PMC10424179, “Disrupting Kaposi’s Sarcoma-Associated Herpesvirus (KSHV) Latent Replication with a Small Molecule Inhibitor” (Journal of Medicinal Chemistry, 2023)
Values after ≈ are worked out from the molar mass of the structure shown.

How the values were obtained:
[1] = molecular target: T1, oligomerization-deficient mutant of a LANA C-terminal protein fragment (aa 1008–1146) (Human herpesvirus 8 (Kaposi's sarcoma-associated herpesvirus), UniProt Q76SB0); assay: Microscale thermophoresis (MST) binding assay; set-up: species or system Kaposi's sarcoma-associated herpesvirus (KSHV); settings: read-out: KD value (MST); LANA aa 1008–1146 mutant; means of at least three replicates
T1 sequence (Q76SB0 1008-1146): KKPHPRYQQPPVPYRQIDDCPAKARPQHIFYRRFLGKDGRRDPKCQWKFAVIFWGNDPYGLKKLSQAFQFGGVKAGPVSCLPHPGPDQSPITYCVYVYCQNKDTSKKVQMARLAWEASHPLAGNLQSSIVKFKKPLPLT
From the text: (§1) In these assays, an oligomerization-deficient mutant of a LANA C-terminal protein fragment (aa 1008–1146) and an oligonucleotide representing LANA-binding site (LBS) 1 were used, which are convenient to use and handle for the described biophysical methods, while maintaining the essential DNA-binding interface.[25]
Equation y = A2 + (A1-A2)/(1 + (x/x0)^p)
1.3 Microscale Thermophoresis (MST) Assay
Microscale Thermophoresis Assay was done as mentioned in a previous publication. 2

[2] = molecular target: LANA–DNA interaction (oligomerization-deficient LANA DBD aa 1008–1146 mutant / LBS1) (Human herpesvirus 8 (Kaposi's sarcoma-associated herpesvirus), UniProt Q76SB0); assay: Electrophoretic mobility shift assay (EMSA), LANA DBD mutant with LBS1 oligonucleotide; format: biochemical, Kaposi's sarcoma-associated herpesvirus (KSHV); settings: compound at 250 μM; LBS1 oligonucleotide; LANA aa 1008–1146 mutant
Protocol: as §1
Equation y = A2 + (A1-A2)/(1 + (x/x0)^p) […]
1.4 Electrophoretic Mobility Shift Assay (EMSA)
The EMSA was carried out with slight modific ations as described previously 2 based on the assay in Hellert et al. (2013). 3 His-tagged oligomerization-deficient LANA DBD (aa1008-1146) mutant protein or LANA DBD (aa934-1162) wild type protein (200 nM final) was incubated with a 5´-Dy682-labeled double stranded DNA probe (IBA Lifesciences) (20 nM final) for 30 minutes at RT in the dark. The reaction buffer consisted of 30 mM Tris HCl pH 7.5, 50 mM KCl, 10 mM MgCl2, 1 mM DTT, 1 mM EDTA, 10% glycerol, 0.25% Tween20, 0.5 mg/mL BSA and 0.05 mg/mL poly(dI-dC). […]
dark. 10 µL of the reaction was run on a pre -run native 5% acrylamide gel for 45 minutes at 100V with tris-borate-EDTA buffer. Images of the gels were acquired and analysed with the Odyssey (Licor) using the Image Studio software.
Fig S2: Gels of EMSA experiments at 250 μM for all compounds (A) and dose-dependent curves for compound 20 using LANA DBD mutant (B) and LANA wildtype (C) as well as LBS1. Values are means […]
Gleichung y = A2 + (A1-A2)/(1 + (x/x0)^p) […]

[3] = Chromatographic LogD7.4; format: physicochemical; settings: reversed-phase HPLC, NUCLEODUR C18 Pyramid column; pH 7.4, HPLC-MS based; read-out: Chrom. LogD7.4
Protocol: (§2) The next step was an in vitro ADMET profiling of the best seven compounds so far: 9, 11, 14, 19, 20, 21, and 27. The compounds were tested for their kinetic solubility (1% DMSO in PBS, pH 7.4), lipophilicity (chromatographic Log D7.4 value), cellular permeability (using Caco-2 cells), and metabolic stability (using mouse and human liver S9 fractions) (see Table 3). […]
LogD7.4 was analyzed using an HPLC−MS based method. The retention time of 12 compounds with known LogD7.4 was determined and plotted toward their LogD7.4. Linear regression was used to determine the LogD7.4 of unknown compounds. Analysis was performed using a Dionex Ultimate 3000 HPLC system coupled to a TSQ Quantum Access MAX (Thermo Fisher, Dreieich, Germany) with the following conditions: EC150/2 NUCLEODUR C18 Pyramid column, 5 μM (Macherey Nagel, Düren, Germany); eluent A: 50 mM NH4OAc pH 7.4, eluent B: acetonitrile, and flow: 0.6 mL/min. The gradient was set to 0−100% B from 0 to 2.5 min, […]
are means of two replicates. […]

[4] = Kinetic solubility; format: physicochemical; settings: PBS with 1% DMSO; 1% DMSO in PBS, pH 7.4
Protocol: (§3) The next step was an in vitro ADMET profiling of the best seven compounds so far: 9, 11, 14, 19, 20, 21, and 27. The compounds were tested for their kinetic solubility (1% DMSO in PBS, pH 7.4), lipophilicity (chromatographic Log D7.4 value), cellular permeability (using Caco-2 cells), and metabolic stability (using mouse and human liver S9 fractions) (see Table 3).
The desired compounds were sequentially diluted in DMSO in a 96-well plate. 1.5 µL of each well were transferred into another 96-well plate and mixed with 148.5 µL of PBS. Plates were shaken for 5 min at 600 rpm at room temperature (r.t.), and the absorbance at 620 nm was measured. Absorbance values were normalized by blank subtraction and plotted using GraphPad Prism 8.4.2 (GraphPad Software, San Diego, CA, USA). Solubility (S) was determined based on the First X value of AUC function using a threshold of 0.005. […]

[5] = Caco-2 cell permeability; format: in vitro ADME; settings: human, pH 7.4, Caco-2 monolayer, apical to basolateral
Protocol: as §3
MTT Assay: Viability of HEK293 cells ~48 hours after treatment […]
Fig S4: MTT assay for compounds 11, 14, 19, 20 and 21 using HEK293 cells. Values are means of […]
Permeability of the compounds was assessed using Caco2 monolayers grown on Transwell® (3460 Costar, Corning). In brief, cells were seeded 60.000 cells/well in 12-well Transwell plates in DMEM medium supplemented with 10% FCS and 1% NEAA. Cells were grown for 7 to 9 days with medium replacement every other day until they reached a tight monolayer. Tightness was defined as transepithelial resistance (TEER) values >300 Ω/cm² (measured using an EVOM Volt-Ohmmeter, World Precision Instruments). At the day of permeability as say, the compound stock solutions in DMSO were diluted to 10µM in Krebs -Ringer-buffer (KRB, pH 7.4). Cells treated with KRB only served as control. Monolayer was washed two times with prewarmed KRB and incubated with 500 µl sample on the apical compartment. Samples from the basolateral side were drawn at t = 0, 15, 30, 60, 120, 180 and 300 min and replaced with fresh buffer. The plates were incubated for 5 h in a cell culture incubator with lateral shaking (200 rpm). TEER values were measured again at the end of the permeability test. Compound concentration was determined with HPLC-ESI-MS/MS in SRM mode and calculated for the cumulative transport. Values are means of three replicates.

[6] = Metabolic stability in human liver S9 fraction; format: in vitro ADME; settings: human liver S9, 1 μM compound
Protocol: as §2
(§4) 1.7 Metabolic Stability in Liver S9 Fractions
(§5) For the evaluation of combined phase I and phase II metabolic stability, the compound (1 μM) was incubated with 1 mg/mL pooled mouse liver S9 fraction (Xenotech, Kansas City, USA) or human liver S9 fraction (Corning, USA), 2 mM NADPH, 1 mM UDPGA, 10 mM MgCl 2, 5 mM GSH and 0.1 mM PAPS at 37 °C for 240 min. The metabolic stability of testosterone, verapamil and ketoconazole were determined in parallel to confirm the enzymatic activity of mouse S9 fractions, for human S9 testosterone, diclofenac and propranolol were used. The incubation was stopped after defined time points by precipitation of aliquots of S9 enzymes with 2 volumes of cold acetonitrile containing internal standard (150 nM diphenhydramine). Samples were stored on ice until the end of the incubation and precipitated protein was removed by centrifugation (15 min, 4 °C, 4,000 g). Concentration of the remaining test compound at the different time points was analyzed by HPLC-MS/MS (TSQ Quantum Access MAX, Thermo Fisher, Dreieich, Germany) and used to determine half -life (t1/2). Values are means of three

[7] = Metabolic stability in mouse liver S9 fraction; format: in vitro ADME; settings: pooled liver S9 fraction, mouse liver S9, 1 μM compound
Protocol: as §2, §4, §5

| SMILES | Kd [1] [µM] | Inhibition (EMSA, LBS1) @250 μM [2] | other results |
| --- | --- | --- | --- |
| Cc1cc(-c2cccnc2)ncc1-n1cc(-c2ccc(C(=O)O)cc2)nn1 [Compound 4] | 81.3 ± 10.5 |  |  |
| Cc1cc(-c2ccncc2)ncc1-n1cc(-c2ccc(C(=O)O)cc2)nn1 [Compound 5] | 57.5 ± 6.8 |  |  |
| Cc1cc(-c2cncnc2)ncc1-n1cc(-c2ccc(C(=O)O)cc2)nn1 [Compound 6] | 13.3 ± 2.5 | 74% |  |
| Cc1cc(-c2cncc(O)c2)ncc1-n1cc(-c2ccc(C(=O)O)cc2)nn1 [Compound 7] | 48.3 ± 11.8 |  |  |
| Cc1cc(-c2ccc(O)nc2)ncc1-n1cc(-c2ccc(C(=O)O)cc2)nn1 [Compound 8] | 13.8 ± 2.7 | 42% |  |
| COc1cncc(-c2cc(C)c(-n3cc(-c4ccc(C(=O)O)cc4)nn3)cn2)c1 [Compound 9] | 11 ± 1.9 | 97% | chromatographic logD [3]: -0.36; solubility kinetic at 5 min [4]: 139 ± 18 µM (≈ 53.8 µg/mL); Papp A→B at 5 h, 10 µM [5]: 2 ± 0.5 ×10⁻⁶ cm/s; microsomal CLint at 1 µM ([6]; read-out: MetStab Human Liver S9 Clint): < 5.8 µL/min/mg; half-life at 1 µM ([6]; read-out: MetStab Human Liver S9 t1/2): > 2 h; microsomal CLint at 1 µM ([7]; read-out: MetStab Mouse Liver S9 Clint): < 5.8 µL/min/mg; half-life at 1 µM ([7]; read-out: MetStab Mouse Liver S9 t1/2): > 2 h |
| COc1ccc(-c2cc(C)c(-n3cc(-c4ccc(C(=O)O)cc4)nn3)cn2)cn1 [Compound 10] | 9.2 ± 2.1 | n.i. (n.i. = no inhibition for inhibition <10%) |  |
| Cc1cc(-c2cnc3ccccc3c2)ncc1-n1cc(-c2ccc(C(=O)O)cc2)nn1 [Compound 12] | 31 ± 2.5 |  |  |
| Cc1cc(-c2ccccc2)ncc1-n1cc(-c2ccc(C(=O)O)cc2)nn1 [Compound 13] | 7.6 ± 2 | n.i. (n.i. = no inhibition for inhibition <10%) |  |
| Cc1cc(-c2cccc(Cl)c2)ncc1-n1cc(-c2ccc(C(=O)O)cc2)nn1 [Compound 15] | 22.1 ± 4.8 | n.i. (n.i. = no inhibition for inhibition <10%) |  |
| Cc1cc(-c2ccc(Cl)cc2)ncc1-n1cc(-c2ccc(C(=O)O)cc2)nn1 [Compound 16] | 37.7 ± 59.3 |  |  |
| COc1ccccc1-c1cc(C)c(-n2cc(-c3ccc(C(=O)O)cc3)nn2)cn1 [Compound 17] | 18 ± 2.7 | 38% |  |
| COc1cccc(-c2cc(C)c(-n3cc(-c4ccc(C(=O)O)cc4)nn3)cn2)c1 [Compound 18] | 9.6 ± 2.8 | n.i. (n.i. = no inhibition for inhibition <10%) |  |
| Cc1cc(-c2cccc(O)c2)ncc1-n1cc(-c2ccc(C(=O)O)cc2)nn1 [Compound 22] | 26.4 ± 3.4 |  |  |
| Cc1cc(-c2ccc(O)cc2)ncc1-n1cc(-c2ccc(C(=O)O)cc2)nn1 [Compound 23] | 30.9 ± 3 |  |  |
| CNC(=O)c1cccc(-c2cc(C)c(-n3cc(-c4ccc(C(=O)O)cc4)nn3)cn2)c1 [Compound 24] | 4.3 ± 0.9 | 40% |  |
| CNC(=O)c1ccc(-c2cc(C)c(-n3cc(-c4ccc(C(=O)O)cc4)nn3)cn2)cc1 [Compound 25] | 30.9 ± 3.1 |  |  |
| Cc1cc(-c2cccc(C(=O)O)c2)ncc1-n1cc(-c2ccc(C(=O)O)cc2)nn1 [Compound 26] | 12.1 ± 3.7 | n.i. (n.i. = no inhibition for inhibition <10%) |  |
| Cc1cc(-c2cccc(Oc3ccccc3)c2)ncc1-n1cc(-c2ccc(C(=O)O)cc2)nn1 [Compound 28] | 71.1 ± 9.3 |  |  |
| Cc1cc(-c2cccc(OCc3ccccc3)c2)ncc1-n1cc(-c2ccc(C(=O)O)cc2)nn1 [Compound 29] | 84.8 ± 5.6 |  |  |
| Cc1cc(-c2cccc(OCc3ccccc3Cl)c2)ncc1-n1cc(-c2ccc(C(=O)O)cc2)nn1 [Compound 30] | 159 ± 74 |  |  |
| COc1ccccc1COc1cccc(-c2cc(C)c(-n3cc(-c4ccc(C(=O)O)cc4)nn3)cn2)c1 [Compound 31] | 30.8 ± 15.9 |  |  |
| COc1cccc(COc2cccc(-c3cc(C)c(-n4cc(-c5ccc(C(=O)O)cc5)nn4)cn3)c2)c1 [Compound 32] | 31.3 ± 3 |  |  |
| COc1cc(COc2cccc(-c3cc(C)c(-n4cc(-c5ccc(C(=O)O)cc5)nn4)cn3)c2)cc(OC)c1 [Compound 33] | 96.7 ± 9 |  |  |
| COc1ccc(COc2cccc(-c3cc(C)c(-n4cc(-c5ccc(C(=O)O)cc5)nn4)cn3)c2)cc1 [Compound 34] | 5.3 ± 4 | 31% |  |
| COc1ccc(COc2ccccc2-c2cc(C)c(-n3cc(-c4ccc(C(=O)O)cc4)nn3)cn2)cc1 [Compound 35] | 46.1 ± 5.8 |  |  |
| COc1ccc(COc2ccc(-c3cc(C)c(-n4cc(-c5ccc(C(=O)O)cc5)nn4)cn3)cc2)cc1 [Compound 36] | 26 ± 3.8 |  |  |
